Like-named read-outs stand apart in the source and are kept apart here.
Legend:
MEK1 = biological target: T1, MEK1 (Homo sapiens, UniProt Q02750); assay: MEK1 kinase cascade assay (ADP-Glo), inhibition of MEK1 kinase activity; type: biochemical
T1 construct: purchased SignalChem M02-14H
In short: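 Cascade format with ADP-Glo read-out: BRAF (25 nM) and compound, 1% DMSO, 20 mins at 25° C, then MEK1 6.25 nM, ERK1 0.5 μM, ATP 1 mM for 1 hr at 25° C in HEPES pH 7.5 buffer with MgCl2, CHAPS and DTT. Percent inhibition, scaled between DMSO and 1 μM Trametinib, was fit by 4-parameter logistic to give IC50 (2 replicate wells).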

BRAF-MEK1 = assay: BRAF-MEK TR-FRET assay, stabilization of MEK1 and BRAF interaction; type: binding; details: read-out: BRAF-MEK TR-FRET Assay (EC50, fold stabilization)
In short: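 Read-out is fold stabilization (treated FRET ratio/DMSO, Em 665/620 nm), fit 4-parameter for EC50 from 2 replicates. Compounds sat with 4 nM GST-BRAF and 10 nM in-house His-MEK1 1 h at 25° C (Tris pH 7.5, MgCl2, 100 μM ATP), then detection antibodies 1 h.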

p-ERK1/2 in HCT116 cells = assay: AlphaLISA p-ERK assay, cellular inhibition of ERK phosphorylation in HCT116 cells; type: cell-based; details: Homo sapiens, HCT-116, 2 hours treatment, PMA stimulation 30 mins
Experimental: Cell culture: HCTI 16, HT-29, and NCI-H292 cells were acquired from American Type Culture Collection (ATCC). HCT116 and HT-29 cells were maintained in ATCC-formulated McCoy's 5a Medium Modified supplemented with 10% fetal bovine serum, NCI-H292 cells were cultured in ATCC formulated RPMI-1640 supplemented with 10% fetal bovine serum. All cells were maintained at 37° C., 5% CO2.
Efficacy of exemplary compounds in cellular inhibition of ERK phosphorylation: Phosphorylation status of ERK1/2 (p-ERK) was used as a readout for inhibition of BRAF-MEK pathway. p-ERK was detected using an immunoassay for quantitative detection of phospho-ERK 1/2 (phosphorylated on Thr202/Tyr204 in ERK1, or Thr185/Tyr187 in ERK2), such as the AlphaLISA® SureFire® Ultra™ p-ERK1/2 (Thr202/Tyr204) kit (Perkin Elmer). HCT116 cells were plated at 10,000 cells per well in 384-well TC-treated plates (Coming). Cells were plated for 24 hours, the medium was then aspirated and cells were treated with vehicle (DMSO) or test compounds (0.1% DMSO in final volume) prepared in serum free, phenol red free medium for 2 hours. Following treatment, cells were stimulated with PMA (1.25 μM/well) for 30 mins after which the medium was aspirated, and the cells were lysed for 10 mins with 1× lysis buffer supplemented with Halt Protease and Phosphatase Inhibitor Cocktail (Thermo Fisher). The lysate was transferred to a 384 well Alpha-plate (PerkinElmer) and incubated for 1 hour with acceptor bead mix followed by 1 hour incubation with donor bead mix. After incubation, the plate was read on a Cytation5 microplate reader (Agilent). % inhibition as a function of compound concentration from 3 replicate wells was fit with a 4-parameter logistic curve using GraphPad Prism or CDD Vault to derive IC50 values.
In this table, for the BRAF ADP Glo kinase assay, “A” indicates IC50 of less than 5 nM; “B” indicates IC50 of between 5 nM to 50 nM; and “C” indicates IC50 of between 50 nM to 500 nM. “D” indicates IC50 of greater than 500 nM. For the BRAF-MEK TR-FRET assay, “A” indicates EC50 of less than 50 nM; “B” indicates EC50 of between 50 nM to 200 nM; and “C” indicates EC50 of between 200 nM to 1 μM. “D′” indicates EC50 of greater than 1 μM. For the AlphaLisa P-ERK assay, “A” indicates IC50 of less than 1 nM; “B” indicates IC50 of between 1 nM to 10 nM; and “C” indicates IC50 of between 10 nM to 100 nM. “D” indicates IC50 of greater than 100 nM. For the cell viability assay, “A” indicates IC50 of less than 1 nM; “B” indicates IC50 of between 1 nM to 10 nM; and “C” indicates IC50 of between 10 nM to 100 nM. “D” indicates IC50 of greater than 100 nM.

NCI-H292 cells = assay: Cell viability assay (CellTiter-Glo), NCI-H292; type: cell-based; details: Homo sapiens, 72 hrs, read-out: Cell Viability Assay: IC50 Determination NCI-H292
In short: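 Cells seeded at 2,000 per well in RPMI-1640 with 10% FBS, treated 24 h later with compound (0.1% DMSO) for 72 h. Viability read by CellTiter-Glo luminescence; IC50 from 4-parameter logistic fit of % inhibition over 3 replicate wells.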

T1 sequence (Q02750 whole entry): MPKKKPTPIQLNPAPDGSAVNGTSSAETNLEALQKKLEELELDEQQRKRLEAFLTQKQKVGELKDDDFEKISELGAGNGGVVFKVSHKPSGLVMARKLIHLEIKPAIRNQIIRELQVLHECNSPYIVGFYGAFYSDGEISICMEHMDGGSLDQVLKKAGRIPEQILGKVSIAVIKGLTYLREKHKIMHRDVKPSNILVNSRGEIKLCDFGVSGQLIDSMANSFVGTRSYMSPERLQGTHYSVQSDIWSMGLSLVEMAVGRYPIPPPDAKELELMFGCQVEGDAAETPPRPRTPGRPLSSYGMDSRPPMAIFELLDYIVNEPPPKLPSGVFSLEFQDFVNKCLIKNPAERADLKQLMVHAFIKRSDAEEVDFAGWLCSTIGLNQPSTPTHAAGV
T1 sequence (P15056 445-723 partner limits assumed): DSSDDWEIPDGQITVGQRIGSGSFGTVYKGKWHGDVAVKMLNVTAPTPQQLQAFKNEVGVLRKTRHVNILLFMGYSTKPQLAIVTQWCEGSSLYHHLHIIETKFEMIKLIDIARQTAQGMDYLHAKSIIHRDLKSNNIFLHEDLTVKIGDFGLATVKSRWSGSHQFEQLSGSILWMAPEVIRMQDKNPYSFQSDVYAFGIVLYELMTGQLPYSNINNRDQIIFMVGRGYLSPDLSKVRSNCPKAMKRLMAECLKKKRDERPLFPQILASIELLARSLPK

Structure (SMILES)	IC50 (MEK1; BRAF ADP Glo kinase assay V3 (IC50)) [nM]	EC50 (BRAF-MEK1; 60 min) [nM]	IC50 (p-ERK1/2 in HCT116 cells) [nM]	IC50 (NCI-H292 cells) [nM]	IC50 (MEK1; 25 nM BRAF, 6.25 nM MEK1, 0.5 μM ERK, 1 mM ATP, 20 min preincubation, 1 hr at 25° C., read-out: BRAF ADP Glo kinase assay V3 (IC50)) [nM]	EC50 (BRAF-MEK1; 4 nM BRAF, 10 nM MEK, 100 μM ATP, 1 hr at 25° C.) [nM]
CNS(=O)(=O)Nc1cccc(CN2Cc3cc(Cl)c(OC(=O)N(C)C)cc3OC2=O)c1F [Compound 149, 6-chloro-3-(2-fluoro-3-((N-methylsulfamoyl)amino)benzyl)-2-oxo-3,4-dihydro-2H-benzo[e][1,3]oxazin-7-yl dimethylcarbamate]	< 5	50 to 200	1 to 10	1 to 10		
CNS(=O)(=O)Nc1nccc(CN2Cc3ccc(Oc4nccnn4)cc3OC2=O)c1F [Compound 164, 3-{[3-fluoro-2-(methylaminosulfonylamino)-4-pyridyl]methyl}-7-(1,2,4-triazin-3-yloxy)-3,4-dihydro-2H-1,3-benzoxazin-2-one]			10 to 100	< 1	5 to 50	< 50

— patent publication US20260297105A1, “RAF-MEK PROTEIN COMPLEX MODULATORS AND METHODS OF USE THEREOF” (GANDEEVA THERAPEUTICS, INC., priority 2023, published 2026)
